Data reported in ChEMBL document CHEMBL1201861, “Genomics of Drug Sensitity in Cancer screening data, Wellcome Trust Sanger Institute”.

Key:
Format in all cases: functional, cell-based
HLE = experiment: cells; conditions: Homo sapiens;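 also: growth inhibition of human HLE cells, read out by a cell viability assay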
Description: SANGER: Inhibition of human HLE cell growth in a cell viability assay.

HSC-2 = experiment: cells; conditions: Homo sapiens;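 also: growth inhibition of human HSC-2 cells, read out by a cell viability assay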
Description: SANGER: Inhibition of human HSC-2 cell growth in a cell viability assay.

Hs-578T = experiment: cells; conditions: Homo sapiens
Description: SANGER: Inhibition of human Hs-578-T cell growth in a cell viability assay.

HSC-4 = experiment: cells; conditions: Homo sapiens;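 also: growth inhibition of human HSC-4 cells, read out with a cell viability assay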
Description: SANGER: Inhibition of human HSC-4 cell growth in a cell viability assay.

ESS-1 = experiment: cells; conditions: Homo sapiens;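 also: growth inhibition of human ESS-1 cells, read out by a cell viability assay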
Description: SANGER: Inhibition of human ESS-1 cell growth in a cell viability assay.

HMV-2 cell line = experiment: cells; conditions: Homo sapiens;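 also: growth inhibition of HMV-II cells, read out with a cell viability assay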
Description: SANGER: Inhibition of human HMV-II cell growth in a cell viability assay.

PFSK-1 = experiment: cells; conditions: Homo sapiens;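 also: cell viability assay measuring how strongly compounds suppress growth of human PFSK-1 cells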
Description: SANGER: Inhibition of human PFSK-1 cell growth in a cell viability assay.

NCI-H2405 = experiment: cells; conditions: Homo sapiens;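 also: growth inhibition of the human cell line, read out with a cell viability assay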
Description: SANGER: Inhibition of human NCI-H2405 cell growth in a cell viability assay.

NCI-H2228 = experiment: cells; conditions: Homo sapiens;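 also: growth inhibition of human NCI-H2228 cells, read out by a cell viability assay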
Description: SANGER: Inhibition of human NCI-H2228 cell growth in a cell viability assay.

NB14 = experiment: cells; conditions: Homo sapiens;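 also: growth inhibition of NB14 cells measured with a cell viability assay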
Description: SANGER: Inhibition of human NB14 cell growth in a cell viability assay.

786-0 = experiment: cells; conditions: Homo sapiens
Description: SANGER: Inhibition of human 786-0 cell growth in a cell viability assay.

HCC38 = experiment: cells; conditions: Homo sapiens;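 also: cell viability assay on the human HCC38 cell line, with IC50 marking the concentration that inhibits cell growth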
Description: SANGER: Inhibition of human HCC38 cell growth in a cell viability assay.

DMS-273 = experiment: cells; conditions: Homo sapiens
Description: SANGER: Inhibition of human DMS-273 cell growth in a cell viability assay.

SK-MEL-30 = experiment: cells; conditions: Homo sapiens;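 also: growth inhibition of SK-MEL-30 cells, determined with a cell viability assay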
Description: SANGER: Inhibition of human SK-MEL-30 cell growth in a cell viability assay.

SW1990 = experiment: cells; conditions: Homo sapiens
Description: SANGER: Inhibition of human SW1990 cell growth in a cell viability assay.

EGI-1 = experiment: cells; conditions: Homo sapiens;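 also: cell viability readout used to gauge growth inhibition of EGI-1 cells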
Description: SANGER: Inhibition of human EGI-1 cell growth in a cell viability assay.

SW48 = experiment: cells; conditions: Homo sapiens;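 also: growth inhibition of SW48 cells, read out with a cell viability assay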
Description: SANGER: Inhibition of human SW48 cell growth in a cell viability assay.

NCI-H28 = experiment: cells; conditions: Homo sapiens;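 also: growth inhibition of human NCI-H28 cells, read out as cell viability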
Description: SANGER: Inhibition of human NCI-H28 cell growth in a cell viability assay.

A2058 = experiment: cells; conditions: Homo sapiens;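 also: reduction of A2058 cell growth, read out with a viability assay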
Description: SANGER: Inhibition of human A2058 cell growth in a cell viability assay.

BCPAP = experiment: cells; conditions: Homo sapiens;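 also: growth inhibition of BCPAP cells, read out in a cell viability assay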
Description: SANGER: Inhibition of human BCPAP cell growth in a cell viability assay.

HCC1569 = experiment: cells; conditions: Homo sapiens;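 also: growth inhibition of human HCC1569 cells, read out with a cell viability assay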
Description: SANGER: Inhibition of human HCC1569 cell growth in a cell viability assay.

WM-115 = experiment: cells; conditions: Homo sapiens
Description: SANGER: Inhibition of human WM-115 cell growth in a cell viability assay.

SCC-25 = experiment: cells; conditions: Homo sapiens;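 also: growth inhibition of SCC-25 cells, measured with a cell viability assay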
Description: SANGER: Inhibition of human SCC-25 cell growth in a cell viability assay.

C-33-A = experiment: cells; conditions: Homo sapiens;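 also: cell viability assay measuring growth inhibition of C-33-A cells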
Description: SANGER: Inhibition of human C-33-A cell growth in a cell viability assay.

DoTc2-4510 = experiment: cells; conditions: Homo sapiens
HuO9 = experiment: cells; conditions: Homo sapiens;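 also: growth inhibition of HuO9 cells, read out with a cell viability assay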
Description: SANGER: Inhibition of human HuO9 cell growth in a cell viability assay.

NCI-H650 = experiment: cells; conditions: Homo sapiens;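 also: growth inhibition of NCI-H650 cells, read out by a viability assay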
Description: SANGER: Inhibition of human NCI-H650 cell growth in a cell viability assay.

CAL-39 = experiment: cells; conditions: Homo sapiens;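 also: cell viability assay measuring growth inhibition of CAL-39 cells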
Description: SANGER: Inhibition of human CAL-39 cell growth in a cell viability assay.

A-427 = experiment: cells; conditions: Homo sapiens;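 also: growth inhibition of human A-427 cells, read out by a cell viability assay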
Description: SANGER: Inhibition of human A427 cell growth in a cell viability assay.

AGS = experiment: cells; conditions: Homo sapiens;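 also: growth inhibition of AGS cells, determined with a cell viability assay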
Description: SANGER: Inhibition of human AGS cell growth in a cell viability assay.

ACHN = experiment: cells; conditions: Homo sapiens;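 also: cell viability read-out used to gauge how strongly growth of human ACHN cells is suppressed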
Description: SANGER: Inhibition of human ACHN cell growth in a cell viability assay.

A2780 = experiment: cells; conditions: Homo sapiens;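 also: growth inhibition of A2780 cells, read out with a cell viability assay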
Description: SANGER: Inhibition of human A2780 cell growth in a cell viability assay.

MC-IXC = experiment: cells; conditions: Homo sapiens;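 also: growth inhibition of MC-IXC cells, read out with a cell viability assay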
Description: SANGER: Inhibition of human MC-IXC cell growth in a cell viability assay.

SiHa = experiment: cells; conditions: Homo sapiens;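 also: Viability-based readout of growth inhibition in SiHa cells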
Description: SANGER: Inhibition of human SiHa cell growth in a cell viability assay.

U-118-MG = experiment: cells; conditions: Homo sapiens
Description: SANGER: Inhibition of human U-118-MG cell growth in a cell viability assay.

DBTRG-05MG = experiment: cells; conditions: Homo sapiens;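 also: cell viability assay measuring growth inhibition of human DBTRG-05MG cells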
Description: SANGER: Inhibition of human DBTRG-05MG cell growth in a cell viability assay.

BT-20 = experiment: cells; conditions: Homo sapiens;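 also: cell viability assay measuring suppression of growth in human BT-20 cells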
Description: SANGER: Inhibition of human BT-20 cell growth in a cell viability assay.

UACC-893 = experiment: cells; conditions: Homo sapiens
Description: SANGER: Inhibition of human UACC-893 cell growth in a cell viability assay.

HCC 2998 = experiment: cells; conditions: Homo sapiens;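 also: growth inhibition of human HCC2998 cells, measured with a cell viability read-out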
Description: SANGER: Inhibition of human HCC2998 cell growth in a cell viability assay.

NCI-H2347 = experiment: cells; conditions: Homo sapiens;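 also: growth inhibition of the cell line, read out with a cell viability assay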
Description: SANGER: Inhibition of human NCI-H2347 cell growth in a cell viability assay.

NCI-H1703 = experiment: cells; conditions: Homo sapiens;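 also: growth inhibition of NCI-H1703 cells, read out via a cell viability assay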
Description: SANGER: Inhibition of human NCI-H1703 cell growth in a cell viability assay.

Ca9-22 = experiment: cells; conditions: Homo sapiens;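 also: growth inhibition of Ca9-22 cells, read out with a cell viability assay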
Description: SANGER: Inhibition of human Ca9-22 cell growth in a cell viability assay.

BEN = experiment: cells; conditions: Homo sapiens;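 also: growth inhibition of the BEN cell line, read out with a cell viability assay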
Description: SANGER: Inhibition of human BEN cell growth in a cell viability assay.

IMR-5 = experiment: cells; conditions: Homo sapiens;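 also: growth inhibition of human IMR-5 cells, read out with a cell viability assay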
Description: SANGER: Inhibition of human IMR-5 cell growth in a cell viability assay.

MRK-nu-1 = experiment: cells; conditions: Homo sapiens;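 also: cell viability assay measuring growth suppression of human MRK-nu-1 cells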
Description: SANGER: Inhibition of human MRK-nu-1 cell growth in a cell viability assay.

REH = experiment: cells; conditions: Homo sapiens;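 also: growth inhibition of REH cells determined with a cell viability read-out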
Description: SANGER: Inhibition of human REH cell growth in a cell viability assay.

PF-382 = experiment: cells; conditions: Homo sapiens
Description: SANGER: Inhibition of human PF-382 cell growth in a cell viability assay.

LB647-SCLC = experiment: cells; conditions: Homo sapiens;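 also: cell growth inhibition, read out by a viability assay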
Description: SANGER: Inhibition of human LB647-SCLC cell growth in a cell viability assay.

NCI-H2171 = experiment: cells; conditions: Homo sapiens;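 also: growth inhibition of human NCI-H2171 cells, read out by a cell viability assay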
Description: SANGER: Inhibition of human NCI-H2171 cell growth in a cell viability assay.

NCI-H1436 = experiment: cells; conditions: Homo sapiens;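 also: growth suppression of human NCI-H1436 cells, determined with a cell viability readout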
Description: SANGER: Inhibition of human NCI-H1436 cell growth in a cell viability assay.

RL = experiment: cells; conditions: Homo sapiens
Description: SANGER: Inhibition of human RL cell growth in a cell viability assay.

Raji = experiment: cells; conditions: Homo sapiens;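 also: cell viability assay measuring inhibition of Raji cell growth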
Description: SANGER: Inhibition of human Raji cell growth in a cell viability assay.

HCC1599 = experiment: cells; conditions: Homo sapiens;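 also: growth inhibition of HCC1599 cells, read out in a cell viability assay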
Description: SANGER: Inhibition of human HCC1599 cell growth in a cell viability assay.

JIYOYE = experiment: cells; conditions: Homo sapiens
Description: SANGER: Inhibition of human JiyoyeP-2003 cell growth in a cell viability assay.

NCI-H1522 = experiment: cells; conditions: Homo sapiens;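 also: growth inhibition of NCI-H1522 cells, read out with a cell viability assay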
Description: SANGER: Inhibition of human NCI-H1522 cell growth in a cell viability assay.

HCC2157 = experiment: cells; conditions: Homo sapiens;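 also: growth inhibition of the cancer cell line, read out as cell viability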
Description: SANGER: Inhibition of human HCC2157 cell growth in a cell viability assay.

TE-15 = experiment: cells; conditions: Homo sapiens;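 also: cell viability readout of growth inhibition in TE-15 cells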
Description: SANGER: Inhibition of human TE-15 cell growth in a cell viability assay.

BOKU = experiment: cells; conditions: Homo sapiens;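 also: growth inhibition of the human BOKU cell line, read out by a cell viability assay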
Description: SANGER: Inhibition of human BOKU cell growth in a cell viability assay.

NCI-H1694 = experiment: cells; conditions: Homo sapiens;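 also: cell viability assay measuring inhibition of growth in human NCI-H1694 cells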
Description: SANGER: Inhibition of human NCI-H1694 cell growth in a cell viability assay.

LC-1F = experiment: cells; conditions: Homo sapiens;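 also: growth inhibition of human LC-1F cells, read out with a cell viability assay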
Description: SANGER: Inhibition of human LC-1F cell growth in a cell viability assay.

YT = experiment: cells; conditions: Homo sapiens
Description: SANGER: Inhibition of human YT cell growth in a cell viability assay.

CA46 = experiment: cells; conditions: Homo sapiens;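 also: growth inhibition of human CA46 cells, read out by a cell viability assay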
Description: SANGER: Inhibition of human CA46 cell growth in a cell viability assay.

BL-41 = experiment: cells; conditions: Homo sapiens
Description: SANGER: Inhibition of human BL-41 cell growth in a cell viability assay.

BC1 cell line = experiment: SANGER: Inhibition of human BC-1 cell growth in a cell viability assay.

For `NC(=O)c1ncn([C@@H]2O[C@H](COP(=O)(O)O)[C@@H](O)[C@H]2O)c1N`, the IC50 (HLE) was greater than 2000 µM, the IC50 (HSC-2) was 846 µM and the IC50 (Hs-578T) was greater than 2000 µM. For the same compound, the IC50 (HSC-4) was 874 µM, the IC50 (ESS-1) was greater than 2000 µM and the IC50 (HMV-2 cell line) was greater than 2000 µM. The IC50 (PFSK-1) was greater than 2000 µM, the IC50 (NCI-H2405) was greater than 2000 µM and the IC50 (NCI-H2228) was 1950 µM. For the same compound, the IC50 (NB14) was 1450 µM, the IC50 (786-0) was 1080 µM and the IC50 (HCC38) was greater than 2000 µM. It also gave an IC50 (DMS-273) greater than 2000 µM, an IC50 (SK-MEL-30) greater than 2000 µM and an IC50 (SW1990) of 1120 µM. The IC50 (EGI-1) was greater than 2000 µM, the IC50 (SW48) was 932 µM and the IC50 (NCI-H28) was 1040 µM. The IC50 (A2058) was greater than 2000 µM, the IC50 (BCPAP) was 733 µM and the IC50 (HCC1569) was 994 µM. For the same compound, the IC50 (WM-115) was greater than 2000 µM, the IC50 (SCC-25) was 1230 µM and the IC50 (C-33-A) was greater than 2000 µM. The IC50 (DoTc2-4510) was 1250 µM, the IC50 (HuO9) was 1970 µM and the IC50 (NCI-H650) was greater than 2000 µM. It also gave an IC50 (CAL-39) greater than 2000 µM, an IC50 (A-427) greater than 2000 µM and an IC50 (AGS) greater than 2000 µM. For the same compound, the IC50 (ACHN) was 1210 µM, the IC50 (A2780) was 1860 µM and the IC50 (MC-IXC) was 1780 µM. For the same compound, the IC50 (SiHa) was greater than 2000 µM, the IC50 (U-118-MG) was 1430 µM and the IC50 (DBTRG-05MG) was 1290 µM. For the same compound, the IC50 (BT-20) was 1400 µM, the IC50 (UACC-893) was greater than 2000 µM and the IC50 (HCC 2998) was greater than 2000 µM. The IC50 (NCI-H2347) was greater than 2000 µM, the IC50 (NCI-H1703) was greater than 2000 µM and the IC50 (Ca9-22) was 1260 µM. It also gave an IC50 (BEN) greater than 2000 µM.

`COc1cc(Nc2c(C#N)cnc3cc(OCCCN4CCN(C)CC4)c(OC)cc23)c(Cl)cc1Cl` [BOSUTINIB] gave an IC50 (HLE) greater than 2 µM, an IC50 (HSC-2) greater than 2 µM and an IC50 (Hs-578T) greater than 2 µM. For the same compound, the IC50 (HSC-4) was 0.172 µM, the IC50 (ESS-1) was greater than 2 µM and the IC50 (HMV-2 cell line) was greater than 2 µM. For the same compound, the IC50 (PFSK-1) was greater than 2 µM, the IC50 (NCI-H2405) was greater than 2 µM and the IC50 (NCI-H2228) was greater than 2 µM. The IC50 (NB14) was greater than 2 µM, the IC50 (786-0) was greater than 2 µM and the IC50 (HCC38) was greater than 2 µM. It also gave an IC50 (DMS-273) greater than 2 µM, an IC50 (SK-MEL-30) greater than 2 µM and an IC50 (SW1990) greater than 2 µM. The IC50 (EGI-1) was greater than 2 µM, the IC50 (SW48) was greater than 2 µM and the IC50 (NCI-H28) was greater than 2 µM. For the same compound, the IC50 (A2058) was greater than 2 µM, the IC50 (BCPAP) was greater than 2 µM and the IC50 (HCC1569) was greater than 2 µM. For the same compound, the IC50 (WM-115) was greater than 2 µM, the IC50 (SCC-25) was greater than 2 µM and the IC50 (C-33-A) was greater than 2 µM. The IC50 (DoTc2-4510) was greater than 2 µM, the IC50 (HuO9) was greater than 2 µM and the IC50 (NCI-H650) was greater than 2 µM. It also gave an IC50 (CAL-39) greater than 2 µM, an IC50 (A-427) greater than 2 µM and an IC50 (AGS) greater than 2 µM. It also gave an IC50 (ACHN) of 0.541 µM, an IC50 (A2780) greater than 2 µM and an IC50 (MC-IXC) greater than 2 µM. The IC50 (SiHa) was greater than 2 µM, the IC50 (U-118-MG) was greater than 2 µM and the IC50 (DBTRG-05MG) was greater than 2 µM. The IC50 (BT-20) was greater than 2 µM, the IC50 (UACC-893) was greater than 2 µM and the IC50 (HCC 2998) was greater than 2 µM. It also gave an IC50 (NCI-H2347) greater than 2 µM, an IC50 (NCI-H1703) greater than 2 µM and an IC50 (Ca9-22) of 1.56 µM. The IC50 (BEN) was greater than 2 µM.

With `CCNc1cc(N[C@H]2CC[C@@H](O)CC2)nc(Nc2ccc3c(ccn3Cc3ccccc3)c2)n1` the IC50 (IMR-5) was greater than 5.12 µM, the IC50 (MRK-nu-1) was 3.09 µM and the IC50 (NB14) was greater than 5.12 µM. For the same compound, the IC50 (REH) was greater than 5.12 µM, the IC50 (PF-382) was greater than 5.12 µM and the IC50 (LB647-SCLC) was greater than 5.12 µM. For the same compound, the IC50 (NCI-H2171) was greater than 5.12 µM, the IC50 (NCI-H1436) was greater than 5.12 µM and the IC50 (RL) was greater than 5.12 µM. The IC50 (Raji) was greater than 5.12 µM, the IC50 (HCC1599) was greater than 5.12 µM and the IC50 (JIYOYE) was greater than 5.12 µM. The IC50 (NCI-H1522) was greater than 5.12 µM, the IC50 (HCC2157) was greater than 5.12 µM and the IC50 (TE-15) was 5.12 µM. The IC50 (BOKU) was greater than 5.12 µM, the IC50 (NCI-H1694) was greater than 5.12 µM and the IC50 (LC-1F) was greater than 5.12 µM. For the same compound, the IC50 (YT) was greater than 5.12 µM, the IC50 (CA46) was greater than 5.12 µM and the IC50 (BL-41) was greater than 5.12 µM. It also gave an IC50 (BC1 cell line) greater than 5.12 µM.

`COc1cc(C)c(Sc2cnc(NC(=O)c3ccc(CNC(C)C(C)(C)C)cc3)s2)cc1C(=O)N1CCN(C(C)=O)CC1` (stereo not given) gave an IC50 (IMR-5) greater than 10.2 µM, an IC50 (MRK-nu-1) of 8.3 µM and an IC50 (NB14) greater than 10.2 µM. It also gave an IC50 (REH) greater than 10.2 µM, an IC50 (PF-382) greater than 10.2 µM and an IC50 (LB647-SCLC) greater than 10.2 µM. It also gave an IC50 (NCI-H2171) greater than 10.2 µM, an IC50 (NCI-H1436) greater than 10.2 µM and an IC50 (RL) greater than 10.2 µM. The IC50 (Raji) was greater than 10.2 µM, the IC50 (HCC1599) was greater than 10.2 µM and the IC50 (JIYOYE) was greater than 10.2 µM. The IC50 (NCI-H1522) was greater than 10.2 µM, the IC50 (HCC2157) was greater than 10.2 µM and the IC50 (TE-15) was greater than 10.2 µM. It also gave an IC50 (BOKU) greater than 10.2 µM, an IC50 (NCI-H1694) greater than 10.2 µM and an IC50 (LC-1F) greater than 10.2 µM. The IC50 (YT) was greater than 10.2 µM, the IC50 (CA46) was greater than 10.2 µM and the IC50 (BL-41) was greater than 10.2 µM. It also gave an IC50 (BC1 cell line) of 9.11 µM.
